Assay [1] has as its system iCell endothelial cells (human iPSC-derived ECs). In words: Tube formation (tubulogenesis) assay in iCell endothelial cells, 18 h. The conditions noted are these: Homo sapiens, Endothelial cell, endothelial cells (endo), 18 hr. The class given is cell-based. The essentials: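 iCell ECs (passages 1–5) seeded 7,500 cells/well on reduced-growth-factor Geltrex in starvation medium, exposed overnight at 37°C to compounds in triplicate concentration–response (0.5% DMSO vehicle). Calcein AM staining, 4× imaging, angiogenesis image analysis; readouts normalized to vehicle, four-parameter logistic fit, POD at 1 SD of vehicle; 100 μM assigned NOAEL if no response.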

Assay [2] deals with HUVECs. In words: High-content imaging cytotoxicity in HUVECs, 24 h. The class given is cell-based, human. The following applies: Homo sapiens, HUVEC, 24 h, HUVEC, 24 hr. In a few lines:
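Point-of-departure values derive from four-parameter logistic fits of vehicle-normalized imaging phenotypes (Hoechst 33342, MitoTracker Orange, calcein AM). The fits follow 24 h exposure of HUVEC monolayers at 37°C and 5% CO2, with a top tested concentration of 100μM.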

Like-named read-outs stand apart in the source and are kept apart here.

On to `Oc1ccccc1-c1ccc(Cl)cc1` [2'-OH-PCB 3], for which the minimal effective concentration turned out to be 13.4 µM in assay [1] (tube formation mtl, read-out: POD endo.mtl.18hr); 9.27 µM in assay [1] (tube formation tlps, read-out: POD endo.tlps.18hr); 29.9 µM in assay [1] (tube formation tta, read-out: POD endo.tta.18hr); 23.1 µM in assay [1] (tube formation ttl, read-out: POD endo.ttl.18hr); 5.19 µM in assay [2] (cyto, read-out: POD huvec.cyto.24hr); 4.06 µM in assay [2] (mito, read-out: POD huvec.mito.24hr). In addition, the minimal effective concentration in assay [2] (mitoint, read-out: POD huvec.mitoint.24hr) turned out to be 34.4 µM; in assay [2] (nma, read-out: POD huvec.nma.24hr), 1.6 µM; in assay [2] (tc, read-out: POD huvec.tc.24hr), 5.19 µM.

The record behind these values is article PMC7377239, “Cardiovascular Effects of Polychlorinated Biphenyls and Their Major Metabolites” (Environmental Health Perspectives, 2020).
